The results in this text go back to patent US20020026034A1, “3-AMINOETHYL-N-AMIDINO-2,5-DIHYDROPYRROLE DERIVATIVES HAVING ARGININE MIMETIC PROPERTIES” (priority 1995, published 2002).

The test system of one experiment is horse thrombin. The experiment is described as follows: Thrombin time (citrate plasma, sphere coagulometer). To be noted: control thrombin time ca 24 seconds. The class given is biochemical. Here is the method: A common test in clinical coagulation diagnostics is the thrombin time. This parameter detects the action of thrombin on fibrinogen and the formation of blood clots. Inhibitors of thrombin result in an increased thrombin time
In order to obtain plasma 9 parts fresh blood from healthy donors are mixed with one part sodium citrate solution (0 11 mol/l) and centrifuged at ca 3000 rpm for 10 min at room temperature, The plasma was removed by pipette and can be stored for ca 8 h at room temperature.
200 μl citrate plasma was incubated for 2 min at 37° C. in a sphere coagulometer (KC10 from the Amelung-Company). 10 μl dimethylsulfoxide (DMSO) or a solution of the active substance in DMSO was added to 190 μl preheated thrombin reagent (Boehringer Mannheim, GmbH. contains ca. 3 U/ml horse thrombin and […]) A stopwatch was started when this 200 μl solution was added to the plasma and the time point at which coagulation starts was determined In the control measurements the thrombin time was ca 24 seconds and was increased by the compound of example 3 depending on the concentration (test concentration/increase of thrombin time 5 μM>300*sec: 0 5 μM/96 sec. 0 05 μM/9 sec) [* the experiment was stopped after 5 minutes]

In a further experiment the target is T1, human thrombin (Homo sapiens, UniProt P00734).
T1 construct: purchased Sigma
The experiment can be described thus: Thrombin inhibition, kinetic measurement with substrate S-2238. The class given is biochemical. Particulars: pH 7 5, 25° C., substrate H-(D)-Phe-Pro-Arg-pNA. On the procedure:
The kinetic measurements were carried out in 0 1 M phosphate buffer which contained 0 2 M sodium chloride and 0 5 % polyethylene glycol 6000 at a pH=7 5 and 25° C. using the substrate H-(D)-Phe-Pro-Arg-pNA (S-2238 Kabi) and human thrombin (Sigma specific activity=2150 NIH-units/mg) in polystyrene semimicrocuvettes in a total volume of 1 ml
Since the measurement curves obtained in both experiments were linear and parallel, the active substance of formula (I) is a rapid thombin inhibitor. The inhibition constant Ki was determined as follows The substrate was added at concentrations of 100 μM. 50 μM. 30 μM, 20 μM and at each substrate concentration a measurement was carried out without inhibitor and three measurements were carried out in the presence of various concentrations of the inhibitor of formula (I). The reactions were started by addition of thrombin. The increase in absorbance at 405 nm caused by the formation of p-nitroanilide was monitored for a time period of 12 min. Measurement points (time versus absorbance) were transferred to a PC at intervals of 20 sec. […] From one measurement series (constant inhibitor concentration, variable substrate concentrations) Km′ and Vmax were determined by a non-linear fit to the equation [formula]
Finally Ki was determined from the total series of measurements by non-linear fit to the equation [formula]

Experiment [1] deals with T2, bovine pancreatic trypsin (Bos taurus, UniProt P00760).
T2 construct: purchased Sigma; host or cells: bovine pancreas
T2 sequence (P00760 24-246): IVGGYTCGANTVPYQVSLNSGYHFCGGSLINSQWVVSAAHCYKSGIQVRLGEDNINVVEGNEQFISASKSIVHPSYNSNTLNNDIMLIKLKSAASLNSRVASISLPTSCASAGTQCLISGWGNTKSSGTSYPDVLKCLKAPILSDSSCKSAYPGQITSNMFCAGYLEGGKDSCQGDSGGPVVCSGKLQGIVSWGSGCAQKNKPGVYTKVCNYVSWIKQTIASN
The experiment is described as follows: Inhibition of trypsin. The class given is biochemical. To be noted: measured as described for thrombin, Km=45 μM, read-out: inhibition constant Ki. Here is the method: 10 mg bovine pancreatic trypsin (Sigma) was dissolved in […] hydrochloric acid and stored in a refrigerator 20 μl thereof was admixed with 980 ul 1 mM hydrochloric acid. 25 μl thereof was used for each measurement. The measurement was carried out as described for thrombin. Km=45 μM.

The target of experiment [2] is isolated activated GpIIb/IIIa receptor (Homo sapiens, UniProt P05106+P08514). The experiment is described as follows: GpIIb/IIIa fibrinogen ELISA. Particulars: fibrinogen binding to coated GpIIb/IIIa receptor; read-out: gpIIb/IIIa-Inhibition IC50. On the procedure: The GpIlb/Illa fibrinogen Elisa is a modification of assays which are described in the following literature: Nachman, R. L. & Leung, L. L. K. (1982): J. Clin. Invest. 69: 263-269 and Wright, P. S. et al. (1993): Biochem. J. 293:263-267.
isolated activated GpIIb/IIIa receptor, sequence (P08514 32-887 limits assumed): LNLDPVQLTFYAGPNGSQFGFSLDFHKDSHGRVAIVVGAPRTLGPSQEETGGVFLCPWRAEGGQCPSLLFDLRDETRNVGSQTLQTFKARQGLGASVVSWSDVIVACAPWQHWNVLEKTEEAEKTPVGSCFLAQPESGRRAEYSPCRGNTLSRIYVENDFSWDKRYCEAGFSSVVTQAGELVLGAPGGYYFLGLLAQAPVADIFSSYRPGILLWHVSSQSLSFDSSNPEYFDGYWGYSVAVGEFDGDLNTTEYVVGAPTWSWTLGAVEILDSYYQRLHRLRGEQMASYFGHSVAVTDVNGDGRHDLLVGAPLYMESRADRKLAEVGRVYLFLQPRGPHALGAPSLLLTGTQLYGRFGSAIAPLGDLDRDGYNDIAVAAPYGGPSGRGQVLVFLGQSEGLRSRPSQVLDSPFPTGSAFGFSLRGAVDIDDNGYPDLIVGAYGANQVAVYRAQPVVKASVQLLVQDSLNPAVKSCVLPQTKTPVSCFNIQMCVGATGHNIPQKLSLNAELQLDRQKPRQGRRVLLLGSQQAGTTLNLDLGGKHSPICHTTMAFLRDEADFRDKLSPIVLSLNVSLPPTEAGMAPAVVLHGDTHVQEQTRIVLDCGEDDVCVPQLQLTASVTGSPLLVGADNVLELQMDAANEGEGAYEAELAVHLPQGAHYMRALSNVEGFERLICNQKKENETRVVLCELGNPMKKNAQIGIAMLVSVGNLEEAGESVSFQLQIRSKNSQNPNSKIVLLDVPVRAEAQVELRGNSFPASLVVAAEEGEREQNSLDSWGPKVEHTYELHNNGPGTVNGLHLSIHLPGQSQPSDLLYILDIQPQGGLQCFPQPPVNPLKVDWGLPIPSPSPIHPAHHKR
isolated activated GpIIb/IIIa receptor, sequence (P08514 891-1039 partner limits assumed): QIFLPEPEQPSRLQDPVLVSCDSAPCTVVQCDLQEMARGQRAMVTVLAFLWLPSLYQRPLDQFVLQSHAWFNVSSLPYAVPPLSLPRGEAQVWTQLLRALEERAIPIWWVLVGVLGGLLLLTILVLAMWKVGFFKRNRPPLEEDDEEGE
isolated activated GpIIb/IIIa receptor, sequence (P05106 27-788): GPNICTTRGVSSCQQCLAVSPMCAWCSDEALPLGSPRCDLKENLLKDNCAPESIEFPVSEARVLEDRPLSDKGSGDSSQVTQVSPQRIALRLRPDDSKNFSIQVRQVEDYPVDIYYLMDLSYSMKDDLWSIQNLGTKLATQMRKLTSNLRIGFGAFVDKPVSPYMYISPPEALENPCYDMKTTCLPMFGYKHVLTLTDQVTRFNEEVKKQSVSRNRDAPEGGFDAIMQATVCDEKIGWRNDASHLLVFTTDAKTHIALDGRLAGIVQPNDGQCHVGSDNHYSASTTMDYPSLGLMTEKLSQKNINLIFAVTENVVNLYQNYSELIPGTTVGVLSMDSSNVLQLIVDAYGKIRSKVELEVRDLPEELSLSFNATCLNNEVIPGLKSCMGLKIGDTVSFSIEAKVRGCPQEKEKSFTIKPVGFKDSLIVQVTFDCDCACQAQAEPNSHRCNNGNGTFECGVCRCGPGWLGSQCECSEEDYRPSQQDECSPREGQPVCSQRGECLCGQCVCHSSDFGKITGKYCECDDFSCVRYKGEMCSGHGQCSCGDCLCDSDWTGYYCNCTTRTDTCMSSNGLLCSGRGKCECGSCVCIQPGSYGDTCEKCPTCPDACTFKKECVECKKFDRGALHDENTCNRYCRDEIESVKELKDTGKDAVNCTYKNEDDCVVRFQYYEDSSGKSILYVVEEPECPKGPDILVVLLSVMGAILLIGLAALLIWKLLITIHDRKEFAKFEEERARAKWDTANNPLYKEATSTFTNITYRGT
Microtitre plates were coated overnight with 2 μg/ml isolated activated GpIIb/IIIa receptor. After unbound receptor had been removed by washing several times the surface of the plates is blocked with 1% casein and it is washed again. The test substance is added at the required concentrations and the plates are incubated for 10 minutes while shaking. The natural ligand of the gpIIb/IIIa receptor, fibrinogen, is added. After incubating for 1 hour unbound fibrinogen is removed by washing several times and the bound fibrinogen is determined by means of a peroxidase-conjugated, anti-fibrinogen monoclonal antibody by measuring the optical density at 405 nm in an ELISA instrument. The inhibition of a fibrinogen-GpIIb/IIIa interaction results in a low optical density. The IC50 value was determined by a concentration/effect curve.

By pKi is commonly meant the negative decadic logarithm of the Ki, by convention in mol/L.

pIC50, pKi: −log10 of the molar value.

On to “HOOC—CH2-D-Cha-(N-cyclopentyl)-Gly-Adc [Example 3]”, for which the “increase of thrombin time” value in the experiment on horse thrombin (test concentration 0 05 μM) was 9 s; in the experiment on horse thrombin (test concentration 0 5 μM), 96 s; in the experiment on horse thrombin (test concentration 5 μM, experiment stopped after 5 minutes), more than 300 s.

In the case of `CN[C@H](Cc1ccccc1)C(=O)N1CCC[C@H]1C(=O)NCCC1=CCN(C(=N)N)C1` [Example 4], the “thrombin inhibition (in words)” value at human thrombin is “inhibits thrombin”.

As for `N=C(N)N1CC=C(CCNC(=O)[C@@H]2C[C@@H]3CC[C@@H](O)C[C@@H]3N2C(=O)[C@@H](Cc2ccccc2)NC(=O)[C@H](O)Cc2ccccc2)C1` [Example 1, D-Pla-D-Phe-L-Choi-Adc], the negative-log Ki (pKi) in experiment [1] was 7.00.

Take `N=C(N)N1CC=C(CC(N)C(=O)NCC(=O)N[C@@H](CC(=O)O)C(=O)N[C@@H](Cc2ccccc2)C(N)=O)C1` (stereo partly drawn) [Example 11, Ada-Gly-Asp-Phe-NH2]: the pIC50 in experiment [2] was 4.89.
